Square brackets hold non-standard residues; d marks the D form. Peptide text beside a SMILES is read from it. 2Nal = N[C@@H](Cc1ccc2ccccc2c1)C(=O)O
Key:
PC-3 cells = assay: MTS cell viability assay; type: cell-based; conditions: PC-3, MTS, 72 hours, 0-250 μM
Description: FIG. 2. (a) Structure of FLM-c2 derivatives D1 (top), D2 (middle) and D3 (bottom) (b) Molecular modelling of compounds D1, D2 and D3. Representation of the molecules are as described in FIG. 1. (c) MTS assay of PC-3 cells treated with FLM-c2, D-1 D3 (0.1-250 μM).
To quantify cell toxicity of FLM-c2, the MTS (3-(4,5-dimethylthiazol-2-yl)-5-(3-carboxymethoxyphenyl)-2-(4-sulfophenyl)-2H-tetrazolium) assay was performed using CellTiter 96@AQueous One Solution Cell Proliferation Assay reagent (Promega, Madison, WI), as per the manufacturer's instructions. PC-3 cells were seeded at 2000 cells per well on a 96 well plate overnight at 37° C. and 5% C02. Cells were then treated with 0-250 μM with each of FLM-c2, D1, D2 and D3, which was incubated for 72 hours at 37° C. and 5% C02. Medium was replaced with 100 μL/well of phenol red-free MEM (Sigma-Aldrich) and 20 μL/well of the MTS reagent was added. After incubation for 3 hours in 37° C. with 5% C02, the absorbance was measured at 490 nm with Spectramax M5e.

EGF-EGFR interaction = molecular target: T1, EGF-EGFR interaction (Homo sapiens, UniProt P00533); assay: EGF-EGFR AlphaLISA assay; type: binding; conditions: in vitro AlphaLISA
T1 construct: purchased Perkin-Elmer
T1 sequence (P00533 25-645 limits assumed): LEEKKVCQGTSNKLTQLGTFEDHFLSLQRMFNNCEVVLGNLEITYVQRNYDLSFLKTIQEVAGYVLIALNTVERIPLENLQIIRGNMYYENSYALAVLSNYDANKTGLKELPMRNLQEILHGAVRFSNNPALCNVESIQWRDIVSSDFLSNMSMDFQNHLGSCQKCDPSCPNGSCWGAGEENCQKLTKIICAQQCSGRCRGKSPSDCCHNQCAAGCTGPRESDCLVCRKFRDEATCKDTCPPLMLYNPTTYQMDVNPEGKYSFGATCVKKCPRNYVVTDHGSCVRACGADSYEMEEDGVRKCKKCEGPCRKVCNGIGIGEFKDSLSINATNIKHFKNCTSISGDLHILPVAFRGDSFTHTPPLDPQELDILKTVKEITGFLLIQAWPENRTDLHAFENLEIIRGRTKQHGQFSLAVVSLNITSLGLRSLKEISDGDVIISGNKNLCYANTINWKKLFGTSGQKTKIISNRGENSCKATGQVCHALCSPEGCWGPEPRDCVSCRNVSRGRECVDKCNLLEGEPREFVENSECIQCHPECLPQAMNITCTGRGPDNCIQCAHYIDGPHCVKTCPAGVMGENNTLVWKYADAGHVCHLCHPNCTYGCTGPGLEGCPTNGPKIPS
Description: FIG. 2. […] Representation of the molecules are as described in FIG. 1.
The AlphaLISA EGF/EGFR binding kit (Perkin-Elmer) was used as per the manufacturer's instructions. […] Finally, 5 μL of EGFR acceptor beads were added, and fluorescence imaged on a plate reader.

[1] = molecular target: T2, hGIIA interaction with EGFR (Homo sapiens, UniProt P00533); assay: Co-immunoprecipitation of hGIIA and EGFR in PC-3 cells; type: cell-based; conditions: PC-3, hGIIA 2 μg/mL, FLM-c2 100 μM
T2 construct: endogenous in cells; host or cells: PC-3
T2 sequence (P00533 25-1210): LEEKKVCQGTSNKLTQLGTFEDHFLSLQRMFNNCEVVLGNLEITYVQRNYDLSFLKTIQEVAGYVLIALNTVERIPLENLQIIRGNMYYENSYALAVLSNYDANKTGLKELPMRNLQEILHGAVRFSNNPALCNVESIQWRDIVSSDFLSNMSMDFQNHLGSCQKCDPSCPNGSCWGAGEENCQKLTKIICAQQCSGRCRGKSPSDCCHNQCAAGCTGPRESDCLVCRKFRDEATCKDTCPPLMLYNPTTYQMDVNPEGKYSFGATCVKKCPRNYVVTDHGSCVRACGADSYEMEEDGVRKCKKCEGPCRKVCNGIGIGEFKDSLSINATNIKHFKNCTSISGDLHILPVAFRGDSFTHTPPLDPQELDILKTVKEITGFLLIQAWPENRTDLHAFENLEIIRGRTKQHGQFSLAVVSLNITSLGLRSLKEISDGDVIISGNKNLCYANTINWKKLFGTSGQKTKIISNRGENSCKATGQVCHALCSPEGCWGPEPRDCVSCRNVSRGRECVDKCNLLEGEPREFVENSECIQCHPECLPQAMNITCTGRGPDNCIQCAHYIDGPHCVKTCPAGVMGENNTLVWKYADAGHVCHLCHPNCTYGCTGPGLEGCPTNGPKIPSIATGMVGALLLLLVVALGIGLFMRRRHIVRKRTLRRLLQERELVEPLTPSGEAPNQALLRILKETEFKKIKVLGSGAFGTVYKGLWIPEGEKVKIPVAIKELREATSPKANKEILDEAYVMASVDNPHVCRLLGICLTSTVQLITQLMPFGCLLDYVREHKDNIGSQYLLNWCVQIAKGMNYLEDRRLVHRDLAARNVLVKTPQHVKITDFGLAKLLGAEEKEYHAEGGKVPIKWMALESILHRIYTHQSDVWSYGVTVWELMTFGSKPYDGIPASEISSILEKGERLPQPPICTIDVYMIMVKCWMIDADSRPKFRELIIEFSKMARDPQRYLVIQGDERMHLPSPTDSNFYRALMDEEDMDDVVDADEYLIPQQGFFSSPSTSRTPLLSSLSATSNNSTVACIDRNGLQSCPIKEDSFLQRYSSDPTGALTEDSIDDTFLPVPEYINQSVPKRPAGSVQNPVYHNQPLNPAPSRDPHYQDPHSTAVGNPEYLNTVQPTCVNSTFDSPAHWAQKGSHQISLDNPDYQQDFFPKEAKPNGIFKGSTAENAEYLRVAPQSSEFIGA
Description: FIG. 1. (a), Amino acid sequence of human group IIA-secreted phospholipase A2 (hGIIA) predicted to interact with EGF-binding site of EGFR shown in magenta; helices shown as red braids; β strands as green arrows; and loops as blue lines. Sequence from which FLM-c2 is derived shown with orange box. (b), Prostate cancer cell line PC-3 incubated with hGIIA (2 μg/mL) and FLM-c2 (100 μM) for 3 hours before lysing and pulldown with hGIIA antibody followed by detection with EGFR antibody. (c), molecular modelling of EGF (pink ribbon) and (d), FLM-c2 analogue (cyclo-(Phe-Leu-Ser-Phe-Arg)) (stick diagram. Yellow, carbon; blue, nitrogen; red oxygen) binding to EGFR. EGFR is depicted as a surface model (red, basic surfaces; blue, acidic surfaces, yellow; cysteine residues; green, hydrophobic surfaces; white neutral surfaces). (e) PC-3 cells co-transfected with Rab5-mCherry (red), EGFR-GFP (green) and treated with hGIIA/AF647 (purple) as well as c2 at 1 μM and 10 μM for 24 hours. EGF (25 ng/mL) and Lapatinib (5 μM) were used as control treatments. N=3, >5 cells per replicate.
PC-3 cells were seeded in a 6-well plate at 300,000 cells/well and grown overnight at 37° C. and 5% CO2. Cells were then incubated with 2 μg/mL hGIIA with and without FLM-c2 (100 μM) for two hours. After incubation, cells were washed three times with 10 mL ice cold PBS for 2 min. […]

[2] = system: EGFR, Rab5 and hGIIA localisation; assay: Live cell imaging of EGFR, Rab5 and hGIIA localisation in PC-3 cells; type: cell-based; conditions: PC-3, c2 10 μM with hGIIA/AF647, 24 hours
Description: The effect of c2 on EGFR, Rab5 and hGIIA localisation was also examined in PC-3 cells. PC-3 cells were co-transfected with EGFR-EGFP and Rab5-mCherry before treatment with hGIIA/AF647 and c2 at 0, 1 and 10 μM.

EGFR = EGFR (Homo sapiens, UniProt P00533); assay: Western blot of EGFR in PC-3 cells; type: cell-based; conditions: PC-3, 100 μM, 24 hours
Chain of EGFR (P00533 25-1210): as above
Description: FIG. 3. (a) PC-3 cells treated with DMSO (0.5%), FLM-c2 (100 μM), D1-D3 (100 μM) or EGF (50 ng/mL) for 24 h, detected for EGFR and GAPDH. (b) PC-3 cells tagged with EGFR-EGFP and lysotracker treated with DMSO (0.5%) or D3 (100 μM) for 24 h.
FIG. 4. (a) PC-3 cells were treated with D1-D3 (100 μM) for 3, 16, 24 and 48 hours. EGFR and ß-Actin ratio was detected. (b) the EGFR:ß-Actin ratio was plotted after normalising to DMSO control.
PC-3 cells were seeded in a 6 well plate at 200,000 cells/well overnight at 37° C. and 5% C02. Media was removed, cells were washed with PBS and serum free media added 1 hour before treatment with FLM-c2, D1-D3 for 3-48 hours. After treatment, media was removed and cells were washed with ice cold PBS. PBS was removed and cells were scraped into 1 mL of PBS containing 5.3 mM of EDTA and centrifuged at 2500 g for 2 min. PBS was removed and cells were lysed with lysis buffer (PBS, 0.1% NP-40, 0.1% sodium deoxycholate, 150 mM NaCl, 1 mM EDTA, 1 mM dithiothreitol, 1 mM phenylmethylsulfonyl fluoride, and IX protease inhibitor cocktail)^17 and mixed with RM-2L Intelli-mixer for 30 min at 4° C. Lysates were then centrifuged at 12,000 g for 20 min at 4° C. 20 μg of lysate was added to 4 μL of Bolt reducing agent and 10 μL of reducing buffer (both reagents supplied by Thermo Fisher Scientific) for a final volume of 40 μL with PBS. Samples were boiled and run on a gel, transferred to a membrane and blocked for 1 hour in 5% skim milk at 25° C. Membrane was probed with either EGFR antibody #2232, GAPDH antibody #2118 or BS-Actin antibody #4970 (Cell Signalling) at 1:1000 in 5% skim milk/TBST overnight at 4° C. Each membrane was washed three times with 50 mL TBST for 5 mins and then incubated with the relevant secondary α-rabbit IgG-HRP-linked antibody (1:1000), for 1 hour at room temperature. The membrane was washed as described above and imaged with the Licor Odyssey.

[3] = system: hGIIA-driven eicosanoid production; conditions: prostate cancer cells; Mann et al. in review; cited from earlier work

CC(C)C[C@@H]1NC(=O)[C@H](Cc2ccc3ccccc3c2)NC(=O)[C@H](CCCNC(=N)N)NC(=O)[C@H](Cc2ccc3ccccc3c2)NC(=O)[C@H](CO)NC1=O [FLM-c2, cyclo-((2-Nal)-Leu-Ser-(2-Nal)-Arg)] (cyclo([2Nal]LS[2Nal]R))
IC50 (PC-3 cells): 211 µM | potency order in inhibiting the EGF/EGFR interaction (EGF-EGFR interaction): FLM-c2>D1>D2>D3 | inhibition of the EGF/EGFR interaction (EGF-EGFR interaction; 0.01-200 μM): inhibited the EGF/EGFR interaction at high concentrations | inhibition of hGIIA-EGFR interaction (EGFR signal after pulldown with hGIIA antibody) [1]: able to inhibit this interaction | effect on EGFR, Rab5 and hGIIA localisation [2]: increased hGIIA/AF647 and Rab5-mCherry punctate size, as well as circularisation of EGFR-GFP expression | EGFR degradation by western blot (EGFR): did not | inhibition of hGIIA-driven eicosanoid production [3]: known to inhibit hGIIA-driven eicosanoid production
